Results on five compounds are retold here after ChEMBL document CHEMBL4190251, “Design and synthesis of conformationally constrained salinomycin derivatives” (Eur J Med Chem, 2017).

Bounds are passed on as bounds.

The test system of assay [1] is HT-29. The assay can be described thus: Antiproliferative activity against human HT-29 cells at 10 uM after 48 hrs by MTT assay relative to control. It is filed as functional.
In assay [2] the test system is HT-29. In words: Antiproliferative activity against human HT-29 cells after 48 hrs by MTT assay. The settings on record: HT-29, 48 h. It counts as functional, cell-based. In general terms: Formazan colour is commonly taken as a measure of viable cells.

For `CC[C@@H](C(=O)[C@@H](C)[C@@H](O)[C@H](C)[C@@H]1O[C@@H]([C@@H](CC)C(=O)O)CC[C@@H]1C)[C@H]1O[C@]2(C=C[C@@H](O)[C@]3(CC[C@@](C)([C@H]4CC[C@](O)(CC)[C@H](C)O4)O3)O2)[C@H](C)C[C@@H]1C` [SALINOMYCIN], the Activity in the assay with HT-29 [1] is on record as 76.1%.

For `CC[C@H]1C(=O)[C@@H](C)[C@@H](O)[C@H](C)[C@@H]2O[C@H](CC[C@@H]2C)[C@@H](CC)C(=O)OC/C=C/CCC(=O)O[C@@H]2CC[C@]3(O[C@H]1[C@@H](C)C[C@H]3C)O[C@@]21CC[C@@](C)([C@H]2CC[C@](O)(CC)[C@H](C)O2)O1`, the IC50 (commonly the concentration at which inhibition is half-maximal) in the assay on HT-29 [2] is 7.64 µM. Moreover, the Activity in the assay on HT-29 [1] stood at 67%. Consider `C=CCCC(=O)O[C@@H]1CC[C@]2(O[C@H]([C@@H](CC)C(=O)[C@@H](C)[C@@H](O)[C@H](C)[C@@H]3O[C@@H]([C@@H](CC)C(=O)OCC=C)CC[C@@H]3C)[C@@H](C)C[C@H]2C)O[C@@]12CC[C@@](C)([C@H]1CC[C@](O)(CC)[C@H](C)O1)O2`, for which the Activity with HT-29 [1] is less than 10%.

The compound `CC[C@H]1C(=O)[C@@H](C)[C@@H](O)[C@H](C)[C@@H]2O[C@H](CC[C@@H]2C)[C@@H](CC)C(=O)OC/C=C/C(=O)O[C@@H]2CC[C@]3(O[C@H]1[C@@H](C)C[C@H]3C)O[C@@]21CC[C@@](C)([C@H]2CC[C@](O)(CC)[C@H](C)O2)O1` returned an IC50 in the assay with HT-29 [2] greater than 10 µM. Further, the Activity with HT-29 [1] was 13.6%. Compound `C=CCOC(=O)[C@H](CC)[C@H]1CC[C@H](C)[C@H]([C@@H](C)[C@H](O)[C@H](C)C(=O)[C@H](CC)[C@H]2O[C@]3(CC[C@@H](OC(=O)C=C)[C@]4(CC[C@@](C)([C@H]5CC[C@](O)(CC)[C@H](C)O5)O4)O3)[C@H](C)C[C@@H]2C)O1` returned an Activity in the assay with HT-29 [1] of less than 10%.
